The kinase profiling compilation of Christmann-Franck et al. (2016)

Assays:
Experiment in all cases: radiometric filter-binding kinase assay, Kinase HotSpot
Details in all cases: compound 0.5 µM; ATP 10 µM
PRKCB2 (human) = PRKCB2 (human) (UniProt P05771)
RET (human) = RET (human) (UniProt P07949)
STK3 (human) = STK3 (human) (UniProt Q13188)
RPS6KA3 KD1 KD2 (human) = RPS6KA3 KD1 KD2 (human) (UniProt P51812)
KDR (human) = KDR (human) (UniProt P35968)
PAK2 (human) = PAK2 (human) (UniProt Q13177)
RAF1 (human) = RAF1 (human) (UniProt P04049)
Sequence of RAF1 (human) (P04049 whole entry, looked up): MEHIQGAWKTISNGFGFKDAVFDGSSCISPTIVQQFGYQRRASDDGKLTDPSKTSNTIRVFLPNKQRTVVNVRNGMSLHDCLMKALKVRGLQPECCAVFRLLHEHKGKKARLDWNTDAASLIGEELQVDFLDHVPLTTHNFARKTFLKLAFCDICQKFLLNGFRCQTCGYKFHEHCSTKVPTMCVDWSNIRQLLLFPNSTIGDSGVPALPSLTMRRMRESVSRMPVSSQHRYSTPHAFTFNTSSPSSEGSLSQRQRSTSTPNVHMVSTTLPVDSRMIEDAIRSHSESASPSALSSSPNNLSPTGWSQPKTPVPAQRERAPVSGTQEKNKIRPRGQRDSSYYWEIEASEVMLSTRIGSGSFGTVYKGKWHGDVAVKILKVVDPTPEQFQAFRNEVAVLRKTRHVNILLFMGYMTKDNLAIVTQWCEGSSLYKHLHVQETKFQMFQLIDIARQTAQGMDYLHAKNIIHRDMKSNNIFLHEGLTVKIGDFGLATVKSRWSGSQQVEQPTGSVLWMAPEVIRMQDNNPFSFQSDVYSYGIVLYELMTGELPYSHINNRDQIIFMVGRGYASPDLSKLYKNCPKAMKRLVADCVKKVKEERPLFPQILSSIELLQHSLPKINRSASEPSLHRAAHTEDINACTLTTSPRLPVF

ULK1 (human) = ULK1 (human) (UniProt O75385)
CAMK4 (human) = CAMK4 (human) (UniProt Q16566)
Sequence of CAMK4 (human) (Q16566 whole entry, looked up): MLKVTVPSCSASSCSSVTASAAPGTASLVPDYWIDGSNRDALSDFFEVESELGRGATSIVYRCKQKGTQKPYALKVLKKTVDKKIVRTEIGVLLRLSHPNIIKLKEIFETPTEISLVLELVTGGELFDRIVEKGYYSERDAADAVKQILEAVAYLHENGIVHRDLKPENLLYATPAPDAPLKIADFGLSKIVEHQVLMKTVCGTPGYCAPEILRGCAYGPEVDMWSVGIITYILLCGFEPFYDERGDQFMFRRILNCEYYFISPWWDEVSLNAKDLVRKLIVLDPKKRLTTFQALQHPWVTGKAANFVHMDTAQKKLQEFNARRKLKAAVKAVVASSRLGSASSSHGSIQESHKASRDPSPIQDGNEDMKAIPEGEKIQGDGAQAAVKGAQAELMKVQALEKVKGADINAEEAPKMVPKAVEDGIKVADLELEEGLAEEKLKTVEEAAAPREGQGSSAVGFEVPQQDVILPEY

GRK4 (human) = GRK4 (human) (UniProt P32298)
TEC (human) = TEC (human) (UniProt P42680)
HIPK4 (human) = HIPK4 (human) (UniProt Q8NE63)
PRKCI (human) = PRKCI (human) (UniProt P41743)
Sequence of PRKCI (human) (P41743 whole entry, looked up): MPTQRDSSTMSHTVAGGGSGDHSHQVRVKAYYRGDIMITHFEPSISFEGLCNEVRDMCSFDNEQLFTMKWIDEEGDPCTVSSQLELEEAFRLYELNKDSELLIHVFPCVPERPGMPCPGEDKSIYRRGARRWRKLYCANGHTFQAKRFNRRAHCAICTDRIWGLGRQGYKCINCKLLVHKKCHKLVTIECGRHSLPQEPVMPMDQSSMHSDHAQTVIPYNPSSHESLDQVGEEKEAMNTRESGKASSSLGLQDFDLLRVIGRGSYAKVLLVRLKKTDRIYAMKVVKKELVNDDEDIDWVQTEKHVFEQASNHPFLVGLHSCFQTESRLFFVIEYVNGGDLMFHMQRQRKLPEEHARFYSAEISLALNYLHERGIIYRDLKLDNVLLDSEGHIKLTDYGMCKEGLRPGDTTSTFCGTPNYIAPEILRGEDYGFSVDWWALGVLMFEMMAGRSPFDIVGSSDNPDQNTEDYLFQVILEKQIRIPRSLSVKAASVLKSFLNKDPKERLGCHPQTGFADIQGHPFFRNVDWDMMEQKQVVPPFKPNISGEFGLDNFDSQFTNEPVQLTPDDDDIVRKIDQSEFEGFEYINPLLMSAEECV

DAPK1 (human) = DAPK1 (human) (UniProt P53355)
Sequence of DAPK1 (human) (P53355 whole entry, looked up): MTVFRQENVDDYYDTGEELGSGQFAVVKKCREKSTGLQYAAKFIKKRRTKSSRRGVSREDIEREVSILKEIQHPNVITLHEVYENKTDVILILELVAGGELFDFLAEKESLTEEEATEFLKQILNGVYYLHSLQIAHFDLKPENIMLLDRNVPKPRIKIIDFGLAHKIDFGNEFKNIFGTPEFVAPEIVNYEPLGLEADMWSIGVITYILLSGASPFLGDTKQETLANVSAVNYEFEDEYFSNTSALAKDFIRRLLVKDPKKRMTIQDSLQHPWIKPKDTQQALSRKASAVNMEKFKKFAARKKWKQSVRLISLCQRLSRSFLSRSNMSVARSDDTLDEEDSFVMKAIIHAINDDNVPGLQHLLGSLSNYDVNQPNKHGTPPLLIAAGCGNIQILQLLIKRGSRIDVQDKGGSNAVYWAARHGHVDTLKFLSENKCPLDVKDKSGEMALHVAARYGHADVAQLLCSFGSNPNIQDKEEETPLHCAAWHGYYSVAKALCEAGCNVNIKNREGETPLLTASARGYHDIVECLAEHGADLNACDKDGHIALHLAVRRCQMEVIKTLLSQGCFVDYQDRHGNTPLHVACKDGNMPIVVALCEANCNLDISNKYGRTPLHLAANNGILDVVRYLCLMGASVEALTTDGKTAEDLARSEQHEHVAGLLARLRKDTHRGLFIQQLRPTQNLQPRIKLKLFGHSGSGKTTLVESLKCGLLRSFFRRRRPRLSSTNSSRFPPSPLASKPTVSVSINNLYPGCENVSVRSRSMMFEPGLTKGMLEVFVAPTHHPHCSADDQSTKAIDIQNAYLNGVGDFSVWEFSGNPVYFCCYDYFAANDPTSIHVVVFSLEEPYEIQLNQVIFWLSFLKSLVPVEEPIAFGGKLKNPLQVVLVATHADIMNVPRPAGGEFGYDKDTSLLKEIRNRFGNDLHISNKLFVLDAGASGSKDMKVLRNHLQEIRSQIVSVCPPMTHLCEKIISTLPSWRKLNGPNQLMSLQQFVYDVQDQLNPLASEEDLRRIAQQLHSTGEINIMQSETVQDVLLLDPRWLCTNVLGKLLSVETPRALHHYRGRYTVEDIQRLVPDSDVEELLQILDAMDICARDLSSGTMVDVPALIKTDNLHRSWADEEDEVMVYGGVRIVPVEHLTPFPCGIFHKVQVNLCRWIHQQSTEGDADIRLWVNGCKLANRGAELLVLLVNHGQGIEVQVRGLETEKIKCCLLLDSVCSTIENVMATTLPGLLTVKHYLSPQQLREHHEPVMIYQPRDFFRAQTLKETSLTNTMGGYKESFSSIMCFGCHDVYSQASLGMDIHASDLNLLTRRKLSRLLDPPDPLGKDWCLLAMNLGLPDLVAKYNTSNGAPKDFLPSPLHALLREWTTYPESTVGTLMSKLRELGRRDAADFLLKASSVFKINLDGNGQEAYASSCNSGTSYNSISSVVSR

CSK (human) = CSK (human) (UniProt P41240)
TEK (human) = TEK (human) (UniProt Q02763)
NTRK2 (human) = NTRK2 (human) (UniProt Q16620)
MAPK12 (human) = MAPK12 (human) (UniProt P53778)
Sequence of MAPK12 (human) (P53778 whole entry, looked up): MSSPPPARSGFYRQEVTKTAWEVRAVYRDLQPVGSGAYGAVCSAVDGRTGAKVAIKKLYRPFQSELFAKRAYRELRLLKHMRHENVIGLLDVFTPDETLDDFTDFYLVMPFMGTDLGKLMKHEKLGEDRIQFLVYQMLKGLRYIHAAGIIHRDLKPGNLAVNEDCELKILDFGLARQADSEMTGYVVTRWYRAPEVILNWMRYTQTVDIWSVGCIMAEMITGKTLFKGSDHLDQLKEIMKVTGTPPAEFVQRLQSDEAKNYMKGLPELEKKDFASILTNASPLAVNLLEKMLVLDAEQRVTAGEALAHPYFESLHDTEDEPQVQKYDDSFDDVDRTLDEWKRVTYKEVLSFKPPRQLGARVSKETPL

IKBKE (human) = IKBKE (human) (UniProt Q14164)
MAPK14 (human) = MAPK14 (human) (UniProt Q16539)
ACVR1B (human) = ACVR1B (human) (UniProt P36896)
Sequence of ACVR1B (human) (P36896 whole entry, looked up): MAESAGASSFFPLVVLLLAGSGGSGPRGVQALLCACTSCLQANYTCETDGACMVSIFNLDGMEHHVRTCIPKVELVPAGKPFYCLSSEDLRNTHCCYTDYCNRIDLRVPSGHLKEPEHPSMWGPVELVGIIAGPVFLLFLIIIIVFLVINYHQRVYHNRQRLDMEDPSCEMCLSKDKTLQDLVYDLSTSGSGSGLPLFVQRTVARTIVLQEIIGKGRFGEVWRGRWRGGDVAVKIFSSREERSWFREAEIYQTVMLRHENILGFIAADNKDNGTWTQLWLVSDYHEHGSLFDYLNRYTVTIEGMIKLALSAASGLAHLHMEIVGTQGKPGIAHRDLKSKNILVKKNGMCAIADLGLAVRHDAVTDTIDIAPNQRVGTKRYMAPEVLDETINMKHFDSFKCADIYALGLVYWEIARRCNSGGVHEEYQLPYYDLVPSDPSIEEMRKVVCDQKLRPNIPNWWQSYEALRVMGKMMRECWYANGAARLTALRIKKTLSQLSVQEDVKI

CDK1 CCNA2 (human) = CDK1 CCNA2 (human) (UniProt P06493+P20248)
FES (human) = FES (human) (UniProt P07332)
PAK4 (human) = PAK4 (human) (UniProt O96013)
FLT1 (human) = FLT1 (human) (UniProt P17948)
ZAP70 (human) = ZAP70 (human) (UniProt P43403)
IRAK4 (human) = IRAK4 (human) (UniProt Q9NWZ3)
SYK (human) = SYK (human) (UniProt P43405)
WEE1 (human) = WEE1 (human) (UniProt P30291)
Sequence of WEE1 (human) (P30291 whole entry, looked up): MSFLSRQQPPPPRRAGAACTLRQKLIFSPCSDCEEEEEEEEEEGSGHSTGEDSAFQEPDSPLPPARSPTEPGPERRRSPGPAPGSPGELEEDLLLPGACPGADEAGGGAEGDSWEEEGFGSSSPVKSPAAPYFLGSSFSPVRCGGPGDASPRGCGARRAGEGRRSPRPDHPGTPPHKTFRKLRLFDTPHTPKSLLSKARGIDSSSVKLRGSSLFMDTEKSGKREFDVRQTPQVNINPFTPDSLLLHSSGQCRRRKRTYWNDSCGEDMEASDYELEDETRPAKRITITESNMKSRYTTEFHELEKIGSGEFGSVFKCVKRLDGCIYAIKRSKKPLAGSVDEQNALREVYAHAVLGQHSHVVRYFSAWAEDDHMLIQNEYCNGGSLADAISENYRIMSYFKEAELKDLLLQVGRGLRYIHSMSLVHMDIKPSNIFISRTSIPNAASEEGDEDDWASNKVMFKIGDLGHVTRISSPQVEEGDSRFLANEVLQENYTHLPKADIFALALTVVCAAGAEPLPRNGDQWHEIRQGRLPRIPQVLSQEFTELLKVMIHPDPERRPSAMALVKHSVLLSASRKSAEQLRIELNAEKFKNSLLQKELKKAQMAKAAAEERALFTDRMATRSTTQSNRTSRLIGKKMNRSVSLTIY

MAP4K5 (human) = MAP4K5 (human) (UniProt Q9Y4K4)
PAK7 (human) = PAK7 (human) (UniProt Q9P286)
CSNK2A1 (human) = CSNK2A1 (human) (UniProt P68400)
MAPK1 (human) = MAPK1 (human) (UniProt P28482)
EPHB1 (human) = EPHB1 (human) (UniProt P54762)
BTK (human) = BTK (human) (UniProt Q06187)
SGK3 (human) = SGK3 (human) (UniProt Q96BR1)
IKBKB (human) = IKBKB (human) (UniProt O14920)
PIM3 (human) = PIM3 (human) (UniProt Q86V86)
CAMK1G (human) = CAMK1G (human) (UniProt Q96NX5)
AURKA (human) = AURKA (human) (UniProt O14965)
NTRK3 (human) = NTRK3 (human) (UniProt Q16288)
NEK2 (human) = NEK2 (human) (UniProt P51955)

## CN(C)c1ccc(/C=C2\C(=O)Nc3ccccc32)cc1
PRKCB2 (human)
  residual activity: 103%
RET (human)
  residual activity: 78%
STK3 (human)
  residual activity: 100%
RPS6KA3 KD1 KD2 (human)
  residual activity: 92.6%
KDR (human)
  residual activity: 94.3%
PAK2 (human)
  residual activity: 102%
RAF1 (human)
  residual activity: 101%
ULK1 (human)
  residual activity: 91.9%
CAMK4 (human)
  residual activity: 97.8%
GRK4 (human)
  residual activity: 103%
TEC (human)
  residual activity: 103%
HIPK4 (human)
  residual activity: 98.3%
PRKCI (human)
  residual activity: 101%
DAPK1 (human)
  residual activity: 92.2%
CSK (human)
  residual activity: 96.9%
TEK (human)
  residual activity: 102%
NTRK2 (human)
  residual activity: 54.8%
MAPK12 (human)
  residual activity: 102%
IKBKE (human)
  residual activity: 98.2%
MAPK14 (human)
  residual activity: 92.4%
ACVR1B (human)
  residual activity: 93.4%
CDK1 CCNA2 (human)
  residual activity: 96.9%
FES (human)
  residual activity: 97.8%
PAK4 (human)
  residual activity: 101%
FLT1 (human)
  residual activity: 92%
ZAP70 (human)
  residual activity: 89.9%
IRAK4 (human)
  residual activity: 104%
SYK (human)
  residual activity: 90.4%
WEE1 (human)
  residual activity: 88.6%
MAP4K5 (human)
  residual activity: 84.5%
PAK7 (human)
  residual activity: 101%
CSNK2A1 (human)
  residual activity: 89.7%
MAPK1 (human)
  residual activity: 96.4%
EPHB1 (human)
  residual activity: 102%
BTK (human)
  residual activity: 104%
SGK3 (human)
  residual activity: 107%
IKBKB (human)
  residual activity: 105%
PIM3 (human)
  residual activity: 102%
CAMK1G (human)
  residual activity: 99.9%
AURKA (human)
  residual activity: 104%
NTRK3 (human)
  residual activity: 36.3%
NEK2 (human)
  residual activity: 98.4%

## COc1ccc(Cl)cc1NC(=O)Nc1cc(C)nc2ccccc12
PRKCB2 (human)
  residual activity: 109%
RET (human)
  residual activity: 102%
STK3 (human)
  residual activity: 98.9%
RPS6KA3 KD1 KD2 (human)
  residual activity: 96.2%
KDR (human)
  residual activity: 92.8%
PAK2 (human)
  residual activity: 97.2%
RAF1 (human)
  residual activity: 94.8%
ULK1 (human)
  residual activity: 91.2%
CAMK4 (human)
  residual activity: 93.6%
GRK4 (human)
  residual activity: 105%
TEC (human)
  residual activity: 110%
HIPK4 (human)
  residual activity: 109%
PRKCI (human)
  residual activity: 99.4%
DAPK1 (human)
  residual activity: 93.3%
CSK (human)
  residual activity: 99.9%
TEK (human)
  residual activity: 96.8%
NTRK2 (human)
  residual activity: 94.6%
MAPK12 (human)
  residual activity: 101%
IKBKE (human)
  residual activity: 107%
MAPK14 (human)
  residual activity: 98.5%
ACVR1B (human)
  residual activity: 97.4%
CDK1 CCNA2 (human)
  residual activity: 104%
FES (human)
  residual activity: 101%
PAK4 (human)
  residual activity: 77.9%
FLT1 (human)
  residual activity: 86.2%
ZAP70 (human)
  residual activity: 94.9%
IRAK4 (human)
  residual activity: 99.9%
SYK (human)
  residual activity: 88.2%
WEE1 (human)
  residual activity: 89%
MAP4K5 (human)
  residual activity: 100%
PAK7 (human)
  residual activity: 85.1%
CSNK2A1 (human)
  residual activity: 97.9%
MAPK1 (human)
  residual activity: 90.4%
EPHB1 (human)
  residual activity: 102%
BTK (human)
  residual activity: 102%
SGK3 (human)
  residual activity: 108%
IKBKB (human)
  residual activity: 94.3%
PIM3 (human)
  residual activity: 97.6%
CAMK1G (human)
  residual activity: 102%
AURKA (human)
  residual activity: 93.4%
NTRK3 (human)
  residual activity: 102%
NEK2 (human)
  residual activity: 106%

## CS(=O)(=O)CCNCc1ccc(-c2ccc3ncnc(Nc4ccc(OCc5cccc(F)c5)c(Cl)c4)c3c2)o1
PRKCB2 (human)
  residual activity: 99.8%
RET (human)
  residual activity: 99.8%
STK3 (human)
  residual activity: 93.7%
RPS6KA3 KD1 KD2 (human)
  residual activity: 105%
KDR (human)
  residual activity: 96.6%
PAK2 (human)
  residual activity: 102%
RAF1 (human)
  residual activity: 85.9%
ULK1 (human)
  residual activity: 95.4%
CAMK4 (human)
  residual activity: 107%
GRK4 (human)
  residual activity: 90.3%
TEC (human)
  residual activity: 101%
HIPK4 (human)
  residual activity: 108%
PRKCI (human)
  residual activity: 106%
DAPK1 (human)
  residual activity: 107%
CSK (human)
  residual activity: 106%
TEK (human)
  residual activity: 93.2%
NTRK2 (human)
  residual activity: 98.8%
MAPK12 (human)
  residual activity: 95%
IKBKE (human)
  residual activity: 94.9%
MAPK14 (human)
  residual activity: 101%
ACVR1B (human)
  residual activity: 98.7%
CDK1 CCNA2 (human)
  residual activity: 101%
FES (human)
  residual activity: 104%
PAK4 (human)
  residual activity: 89.9%
FLT1 (human)
  residual activity: 100%
ZAP70 (human)
  residual activity: 92.5%
IRAK4 (human)
  residual activity: 91.5%
SYK (human)
  residual activity: 113%
WEE1 (human)
  residual activity: 97.5%
MAP4K5 (human)
  residual activity: 109%
PAK7 (human)
  residual activity: 98.5%
CSNK2A1 (human)
  residual activity: 121%
MAPK1 (human)
  residual activity: 102%
EPHB1 (human)
  residual activity: 104%
BTK (human)
  residual activity: 103%
SGK3 (human)
  residual activity: 102%
IKBKB (human)
  residual activity: 81%
PIM3 (human)
  residual activity: 93.7%
CAMK1G (human)
  residual activity: 102%
AURKA (human)
  residual activity: 81.5%
NTRK3 (human)
  residual activity: 103%
NEK2 (human)
  residual activity: 118%

## Cc1nc(-c2ccccc2)c(-c2ccncc2)o1
PRKCB2 (human)
  residual activity: 88.4%
RET (human)
  residual activity: 97.5%
STK3 (human)
  residual activity: 104%
RPS6KA3 KD1 KD2 (human)
  residual activity: 103%
KDR (human)
  residual activity: 85.2%
PAK2 (human)
  residual activity: 82.3%
RAF1 (human)
  residual activity: 92.6%
ULK1 (human)
  residual activity: 84.6%
CAMK4 (human)
  residual activity: 97.2%
GRK4 (human)
  residual activity: 94.3%
TEC (human)
  residual activity: 127%
HIPK4 (human)
  residual activity: 102%
PRKCI (human)
  residual activity: 101%
DAPK1 (human)
  residual activity: 124%
CSK (human)
  residual activity: 107%
TEK (human)
  residual activity: 101%
NTRK2 (human)
  residual activity: 103%
MAPK12 (human)
  residual activity: 105%
IKBKE (human)
  residual activity: 102%
MAPK14 (human)
  residual activity: 76.3%
ACVR1B (human)
  residual activity: 99.3%
CDK1 CCNA2 (human)
  residual activity: 94.7%
FES (human)
  residual activity: 101%
PAK4 (human)
  residual activity: 101%
FLT1 (human)
  residual activity: 79.4%
ZAP70 (human)
  residual activity: 98.8%
IRAK4 (human)
  residual activity: 107%
SYK (human)
  residual activity: 99.1%
WEE1 (human)
  residual activity: 91.9%
MAP4K5 (human)
  residual activity: 96.2%
PAK7 (human)
  residual activity: 96.1%
CSNK2A1 (human)
  residual activity: 109%
MAPK1 (human)
  residual activity: 90.3%
EPHB1 (human)
  residual activity: 107%
BTK (human)
  residual activity: 98.3%
SGK3 (human)
  residual activity: 96.4%
IKBKB (human)
  residual activity: 105%
PIM3 (human)
  residual activity: 106%
CAMK1G (human)
  residual activity: 92.8%
AURKA (human)
  residual activity: 91.2%
NTRK3 (human)
  residual activity: 105%
NEK2 (human)
  residual activity: 116%
